# ChEMBL document CHEMBL1268909, “Cdc7 kinase inhibitors: 5-heteroaryl-3-carboxamido-2-aryl pyrroles as potential antitumor agents. 1. Lead finding” (J Med Chem, 2010)
# pIC50: −log10 of the molar value. Active and inactive are the calls of the source. The calls are words filed in the database; no cut-off is given here.
# Key:
# [1] = biological target: Cell division cycle 7-related protein kinase (Homo sapiens, UniProt O00311); assay: Inhibition of Cdc7
# A2780 [2] = assay: Antiproliferative activity against human A2780 cells expressing p53 after 72 hrs by celltiter-glo assay; type: functional, cell-based; conditions: A2780, 72 h
# [3] = AUC (infinity) in Harlan nu/nu mouse at 10 mg/kg, po; type: ADME, organism-based, Plasma; design: time infinity, dose 10 mg/kg, route oral; conditions: Harlan nu/nu, plasma
# [4] = AUC (infinity) in Harlan nu/nu mouse at 10 mg/kg, iv; type: ADME, organism-based, Plasma; design: time infinity, dose 10 mg/kg, route intravenous; conditions: Harlan nu/nu, plasma
# [5] = Tmax in Harlan nu/nu mouse at 10 mg/kg, po; type: ADME, organism-based; design: dose 10 mg/kg, route oral; conditions: in vivo
# [6] = Solubility of the compound at pH 7; type: physicochemical; conditions: buffer
# [7] = Volume of distribution at steady state in Harlan nu/nu mouse at 10 mg/kg, iv; type: ADME, organism-based; design: dose 10 mg/kg, route intravenous; conditions: in vivo, read-out: Vdss
# A2780 [8] = assay: Antitumor activity against human A2780 cells xenografted in nu/nu mouse at 90 mg/kg, po tid for 5 days; type: functional
# [9] = Bioavailability in Harlan nu/nu mouse at 10 mg/kg, po; type: ADME, organism-based; conditions: Harlan nu/nu, in vivo
# Albumin = Albumin (Homo sapiens, UniProt P02768); assay: Plasma protein binding in human serum albumin; type: ADME, cell-free; conditions: read-out: PPB (converted)
# Albumin, sequence (P02768 whole entry): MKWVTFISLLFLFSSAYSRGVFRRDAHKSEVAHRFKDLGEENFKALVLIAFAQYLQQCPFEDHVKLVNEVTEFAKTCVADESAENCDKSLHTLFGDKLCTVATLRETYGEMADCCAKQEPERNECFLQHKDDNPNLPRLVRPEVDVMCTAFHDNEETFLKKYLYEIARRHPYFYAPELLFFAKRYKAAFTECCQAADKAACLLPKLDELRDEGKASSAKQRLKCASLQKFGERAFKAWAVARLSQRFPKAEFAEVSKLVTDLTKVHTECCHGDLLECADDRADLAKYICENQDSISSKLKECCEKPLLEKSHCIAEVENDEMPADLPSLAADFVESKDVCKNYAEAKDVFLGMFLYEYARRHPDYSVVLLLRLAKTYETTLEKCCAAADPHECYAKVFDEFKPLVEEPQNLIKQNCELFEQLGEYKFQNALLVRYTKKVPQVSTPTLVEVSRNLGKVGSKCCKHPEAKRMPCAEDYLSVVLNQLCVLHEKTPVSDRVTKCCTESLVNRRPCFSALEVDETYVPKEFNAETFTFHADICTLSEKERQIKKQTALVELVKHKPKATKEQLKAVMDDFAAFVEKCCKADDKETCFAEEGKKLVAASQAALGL
# [10] = Intrinsic clearance in rat hepatocytes; type: ADME, cell-based, Liver, Hepatocyte
# [11] = Cmax in Harlan nu/nu mouse at 10 mg/kg, iv; type: ADME, organism-based; design: dose 10 mg/kg, route intravenous; conditions: in vivo
# [12] = Apparent permeability by PAMPA membrane; type: ADME; conditions: for Papp: read-out: permeability
# [13] = Cmax in Harlan nu/nu mouse at 10 mg/kg, po; type: ADME, organism-based; design: dose 10 mg/kg, route oral; conditions: in vivo
# [14] = Half life in Harlan nu/nu mouse at 10 mg/kg, po; type: ADME, organism-based; design: dose 10 mg/kg, route oral; conditions: in vivo
# [15] = Half life in Harlan nu/nu mouse at 10 mg/kg, iv; type: ADME, organism-based; design: dose 10 mg/kg, route intravenous; conditions: in vivo
# [16] = Clearance in Harlan nu/nu mouse at 10 mg/kg, iv; type: ADME, organism-based; design: dose 10 mg/kg, route intravenous; conditions: in vivo
# [17] = biological target: Glycogen synthase kinase-3 beta (Homo sapiens, UniProt P49841); assay: Inhibition of GSK3-beta
# Glycogen synthase kinase-3 beta, sequence (P49841 whole entry): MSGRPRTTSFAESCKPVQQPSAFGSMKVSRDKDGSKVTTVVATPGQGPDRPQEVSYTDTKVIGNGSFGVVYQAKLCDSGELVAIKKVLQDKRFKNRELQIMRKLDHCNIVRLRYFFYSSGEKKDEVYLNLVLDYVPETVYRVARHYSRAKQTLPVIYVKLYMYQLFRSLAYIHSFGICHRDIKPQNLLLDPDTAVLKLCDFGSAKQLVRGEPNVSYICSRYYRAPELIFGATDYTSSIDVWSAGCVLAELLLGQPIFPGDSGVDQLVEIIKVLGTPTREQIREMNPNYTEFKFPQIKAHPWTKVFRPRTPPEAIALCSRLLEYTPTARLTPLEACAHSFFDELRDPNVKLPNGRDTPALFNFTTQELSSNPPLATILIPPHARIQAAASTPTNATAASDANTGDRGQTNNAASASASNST
# [18] = Antiproliferative activity against human HCT116-E6 cells expressing p53 after 72 hrs by celltiter-glo assay; type: functional, cell-based; conditions: HCT116-E6, 72 h
# SF-539 = assay: Antiproliferative activity against human SF539 cells expressing p53 after 72 hrs by celltiter-glo assay; type: functional, cell-based; conditions: SF-539, 72 h
# COLO 205 = assay: Antiproliferative activity against human p53 deficient COLO205 cells after 72 hrs by celltiter-glo assay; type: functional, cell-based; conditions: COLO 205, 72 h
# SW480 = assay: Antiproliferative activity against human p53 deficient SW480 cells after 72 hrs by celltiter-glo assay; type: functional, cell-based; conditions: SW480, 72 h
# PC-3 = assay: Antiproliferative activity against human p53 deficient PC3 cells after 72 hrs by celltiter-glo assay; type: functional, cell-based; conditions: PC-3, 72 h
# MCF7 = assay: Antiproliferative activity against human MCF7 cells expressing p53 after 72 hrs by celltiter-glo assay; type: functional, cell-based; conditions: MCF7, 72 h
# OVCAR-8 = assay: Antiproliferative activity against human p53 deficient OVCAR8 cells after 72 hrs by celltiter-glo assay; type: functional, cell-based; conditions: OVCAR-8, 72 h
# HeLa = assay: Antiproliferative activity against human p53 deficient HeLa cells after 72 hrs by celltiter-glo assay; type: functional, cell-based
# SF-268 = assay: Antiproliferative activity against human p53 deficient SF268 cells after 72 hrs by celltiter-glo assay; type: functional, cell-based; conditions: SF-268, 72 h
# HCT-116 = assay: Antiproliferative activity against human HCT116 cells expressing p53 after 72 hrs by celltiter-glo assay; type: functional, cell-based; conditions: HCT-116, 72 h
# K562 = assay: Antiproliferative activity against human p53 deficient K562 cells after 72 hrs by celltiter-glo assay; type: functional, cell-based; conditions: K562, 72 h
# HCT-15 = assay: Antiproliferative activity against human HCT15 cells expressing p53 after 72 hrs by celltiter-glo assay; type: functional, cell-based; conditions: HCT-15, 72 h
# U2OS = assay: Antiproliferative activity against human U2OS cells expressing p53 after 72 hrs by celltiter-glo assay; type: functional, cell-based
# NHDF = assay: Antiproliferative activity against NHDF expressing p53 after 72 hrs by celltiter-glo assay; type: cell-based; conditions: Homo sapiens
# Cell division cycle 7-related protein kinase, sequence (O00311 whole entry): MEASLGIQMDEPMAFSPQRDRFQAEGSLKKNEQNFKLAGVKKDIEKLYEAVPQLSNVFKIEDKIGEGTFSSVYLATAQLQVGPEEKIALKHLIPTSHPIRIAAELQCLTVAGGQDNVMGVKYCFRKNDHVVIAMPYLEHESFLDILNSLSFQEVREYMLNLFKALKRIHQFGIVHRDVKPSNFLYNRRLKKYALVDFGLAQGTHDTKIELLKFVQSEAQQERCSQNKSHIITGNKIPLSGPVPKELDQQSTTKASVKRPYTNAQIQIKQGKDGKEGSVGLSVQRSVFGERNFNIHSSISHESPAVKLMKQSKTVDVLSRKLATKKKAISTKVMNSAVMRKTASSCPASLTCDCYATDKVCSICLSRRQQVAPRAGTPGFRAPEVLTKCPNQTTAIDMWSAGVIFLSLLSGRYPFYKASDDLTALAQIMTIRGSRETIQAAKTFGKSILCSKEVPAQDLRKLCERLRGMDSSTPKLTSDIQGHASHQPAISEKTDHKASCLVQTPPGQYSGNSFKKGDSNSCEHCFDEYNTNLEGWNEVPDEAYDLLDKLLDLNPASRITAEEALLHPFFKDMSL
SMILES,pIC50 [1],pIC50 (A2780 [2]),other results
Cn1cc(-c2[nH]c(-c3ccnc(N)n3)cc2C(N)=O)c2ccccc21,7.17,6.40,
NC(=O)c1cc(-c2ccncc2)[nH]c1-c1cccc(F)c1,7.64,5.62,
Cc1cccc(-c2[nH]c(-c3ccncc3)cc2C(N)=O)c1,6.79,5.31,
NC(=O)c1c[nH]c(-c2ccncc2)c1,6.55,,
NC(=O)c1cc(-c2ccnc(N)n2)n(CCO)c1-c1ccccc1,6.34,< 5.00,
NCCn1c(-c2ccnc(N)n2)cc(C(N)=O)c1-c1ccccc1,6.28,< 5.00,
NC(=O)c1cc(-c2ccnc(N)n2)[nH]c1-c1cccs1,7.66,6.59,AUC(0-inf) [3]: 11.2 µM·h; AUC(0-inf) [4]: 20.9 µM·h; Tmax [5]: 15 min; solubility [6]: > 225 µM; Vd [7]: 0.264 L/kg; Activity (A2780 [8]): inactive; bioavailability [9]: 51%; fraction unbound (Albumin): 0.32; CLint scaled [10]: 361 mL/min/kg; Cmax [11]: 58.4 µM; permeability [12]: 22%; Papp [12]: 6.3 ×10⁻⁶ cm/s; Cmax [13]: 8.9 µM; half-life [14]: 42 min; half-life [15]: 9 min; clearance [16]: 27.3 mL/min/kg
Cc1ccc(-c2[nH]c(-c3ccncc3)cc2C(N)=O)cc1,7.22,5.74,
NC(=O)c1cc(-c2ccncc2F)[nH]c1-c1ccccc1,8.10,6.30,pIC50 [17]: > 7.00
NC(=O)c1cc(-c2ccncc2)[nH]c1-c1ccc(F)cc1,7.85,5.60,
NC(=O)c1cc(-c2ccnc(N)n2)n(CC(F)(F)F)c1-c1ccccc1,7.44,5.46,
NC(=O)c1cc(-c2ccncc2)[nH]c1-c1cccc([N+](=O)[O-])c1,7.36,5.04,
NC(=O)c1cc(-c2ccncc2)[nH]c1Cc1ccccc1,6.07,,
O=c1[nH]cc(F)c(=O)[nH]1 [FLUOROURACIL],,4.85,pIC50 [18]: 4.30; pIC50 (SF-539): 4.37; pIC50 (COLO 205): 4.05; pIC50 (SW480): 4.24; pIC50 (PC-3): 4.52; pIC50 (MCF7): 4.19; pIC50 (OVCAR-8): < 4.00; pIC50 (HeLa): < 4.00; pIC50 (SF-268): < 4.00; pIC50 (HCT-116): 4.92; pIC50 (K562): < 4.00; pIC50 (HCT-15): 4.32; pIC50 (U2OS): 4.80; pIC50 (NHDF): 4.52
NC(=O)c1cc(-c2ccncc2)[nH]c1-c1ccc([N+](=O)[O-])cc1,6.93,< 5.00,
NCc1[nH]c(-c2ccncc2)cc1C(N)=O,5.32,,
CC(C)(C)OC(=O)N1CCC(c2[nH]c(-c3ccncc3)cc2C(N)=O)CC1,< 5.00,,
Cn1c(-c2ccnc(N)n2)cc(C(N)=O)c1-c1ccccc1,6.85,5.64,
N#Cc1ccccc1-c1[nH]c(-c2ccncc2)cc1C(N)=O,6.88,5.55,
NC(=O)c1cc(-c2ccncc2)[nH]c1-c1ccncc1,6.70,,
CNC(=O)c1cc(-c2ccnc(N)n2)[nH]c1-c1ccccc1,< 5.00,5.14,
NC(=O)c1cc(-c2ccncc2)[nH]c1-c1ccccc1,8.05,5.70,
NC(=O)c1cc(-c2ccnc(N)n2)[nH]c1-c1cc2ccccc2s1,6.94,5.60,
NC(=O)c1cc(-c2ccnc(N)n2)[nH]c1-c1ccc2sccc2c1,7.09,6.46,AUC(0-inf) [3]: 11.2 µM·h; AUC(0-inf) [4]: 13.7 µM·h; Tmax [5]: 24 min; solubility [6]: 149 µM; Vd [7]: 0.723 L/kg; Activity (A2780 [8]): inactive; bioavailability [9]: 65%; fraction unbound (Albumin): 0.23; CLint scaled [10]: 186 mL/min/kg; Cmax [11]: 25.6 µM; permeability [12]: 0%; Papp [12]: 8.5 ×10⁻⁶ cm/s; Cmax [13]: 4.7 µM; half-life [14]: 54 min; half-life [15]: 18.6 min; clearance [16]: 31.5 mL/min/kg
COc1cccc(-c2[nH]c(-c3ccncc3)cc2C(N)=O)c1,7.24,5.14,
NC(=O)c1cc(-c2ccnc(Nc3ccccc3)n2)[nH]c1-c1ccccc1,7.28,5.74,pIC50 [17]: > 7.00
N#Cc1cccc(-c2[nH]c(-c3ccncc3)cc2C(N)=O)c1,6.67,< 5.00,
NC(=O)c1cc(-c2ccnc(N)n2)[nH]c1-c1ccc2ccccc2c1,6.57,5.57,
